In patent US20230167124A1, “Methods for the Production of Nickel (II) Etioporphyrin-I” (Adgero Biopharmaceuticals Holdings, Inc., priority 2020, published 2023):

Experiment: Solubility of etioporphyrin-I in chloroform
Format: physicochemical
Conditions: solvent chloroform
Description: In addition to the problems associated with the isolation of the dipyrromethenes, another difficulty in the syntheses of etioporphyrin I is the work up and purification procedures for isolating etioporphyrin-I. The coupling reaction of the dipyrromethenes (see Scheme 3, (5) and (6)) is carried out in refluxing formic acid. Generally, this gives a tarry, black reaction mixture that yield about 20-35% of etioporphyrin-I after extensive chromatography. On small scales (1-40 g of dipyrromethenes), dissolution of the tarry reaction mixture in chloroform, followed by neutralization and chromatography on large amounts of silica affords the desired porphyrin. […] During this process it is not uncommon for etioporphyrin-I to precipitate from solution onto the silica gel, making column chromatography (even on small scale (10 g)) difficult. Clearly, such a process is not feasible economically on large scale.

solubility in chloroform: < 10000 µg/mL
Substance: etioporphyrin-I
